ChEMBL document CHEMBL1201862, “PubChem BioAssay data set” (2004)
Activity calls are given as the source filed them.

Assays:
[1] = inhibitors of intracellular T. cruzi replication, confirmation, NIH3T3 host cells, beta-gal luminescence (AID 2044); assay type: functional, cell-based;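 further: intracellular parasites grown in NIH/3T3 mouse fibroblasts as host cells; luminescent beta-galactosidase reporter signal from transgenic T. cruzi replicating inside host cells; inhibitors lower the luminescence signal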
[2] = target: T1, Heat shock factor protein 1 (Mus musculus, UniProt P38532); assay: inhibition of MG132-induced HSE-luciferase signal, confirmation, cell-based, NIH3T3, luminescence, dose retest (AID 2382); assay type: functional;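 further: NIH3T3 fibroblasts with HSF1-driven luciferase reporter stressed by proteasome inhibitor MG132; luminescence from HSF1-driven luciferase expression after 8 hours of MG132 stress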
T1 sequence (P38532 whole entry): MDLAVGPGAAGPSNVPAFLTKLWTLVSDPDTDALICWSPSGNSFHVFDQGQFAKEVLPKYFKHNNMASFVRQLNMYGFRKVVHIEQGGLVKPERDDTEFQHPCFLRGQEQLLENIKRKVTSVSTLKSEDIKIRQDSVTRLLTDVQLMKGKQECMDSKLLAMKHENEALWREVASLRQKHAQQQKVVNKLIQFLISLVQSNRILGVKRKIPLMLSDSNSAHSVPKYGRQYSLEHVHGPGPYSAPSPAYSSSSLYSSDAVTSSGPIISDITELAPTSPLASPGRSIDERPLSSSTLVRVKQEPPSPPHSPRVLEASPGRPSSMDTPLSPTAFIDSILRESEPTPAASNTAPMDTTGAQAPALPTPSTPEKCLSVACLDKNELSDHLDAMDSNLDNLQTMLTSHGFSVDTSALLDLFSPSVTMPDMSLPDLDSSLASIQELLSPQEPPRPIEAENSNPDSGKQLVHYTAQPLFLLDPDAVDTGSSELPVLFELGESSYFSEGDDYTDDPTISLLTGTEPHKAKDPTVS

[3] = inhibitors of firefly luciferase expression or activity, dose response, H4 neuroglioma cells, luminescence (AID 1990); assay type: functional, cell-based
[4] = Luminescence Cell-Based Dose Response HTS to Identify Inhibitors of 5'UTR Stem-Loop Driven Prion Protein mRNA Translation in H4 Neuroglioblastoma Cells. [Related pubchem assays: 1827 (Project Summary), 1813 (Primary HTS)]; assay type: functional
[5] = inhibitors of SNCA 5'UTR-driven reporter translation, confirmation, H4 neuroglioma cells, luminescence (AID 1988); assay type: functional, cell-based
[6] = target: T1, Heat shock factor protein 1; assay: HSF1 potentiators in luciferase reporter cells, confirmation, cell-based, NIH3T3, luminescence, dose retest (AID 435004); assay type: functional;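 further: stress induced by proteasome inhibitor MG132 added 30 min after compound; luciferase reporter driven by HSF1 response element in NIH3T3 cells; actives raise luminescence as potentiators of the MG132 stress response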
[7] = cytotoxicity toward NIH3T3 fibroblasts, dose response, counter-screen, cell-based, ATP luminescence, mouse fibroblasts (AID 2010); assay type: functional;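 further: cells exposed to compound for about 90 hours before reading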
[8] = target: Cytochrome P450 2C19 (Homo sapiens, UniProt P33261); assay: Cytochrome panel assay with activity outcomes. Panel member name: p450-cyp2c19 Compounds with AC50 equal or less than 10 uM are considered active; assay type: functional; conditions: read-out: AC50
Chain of Cytochrome P450 2C19 (P33261 whole entry): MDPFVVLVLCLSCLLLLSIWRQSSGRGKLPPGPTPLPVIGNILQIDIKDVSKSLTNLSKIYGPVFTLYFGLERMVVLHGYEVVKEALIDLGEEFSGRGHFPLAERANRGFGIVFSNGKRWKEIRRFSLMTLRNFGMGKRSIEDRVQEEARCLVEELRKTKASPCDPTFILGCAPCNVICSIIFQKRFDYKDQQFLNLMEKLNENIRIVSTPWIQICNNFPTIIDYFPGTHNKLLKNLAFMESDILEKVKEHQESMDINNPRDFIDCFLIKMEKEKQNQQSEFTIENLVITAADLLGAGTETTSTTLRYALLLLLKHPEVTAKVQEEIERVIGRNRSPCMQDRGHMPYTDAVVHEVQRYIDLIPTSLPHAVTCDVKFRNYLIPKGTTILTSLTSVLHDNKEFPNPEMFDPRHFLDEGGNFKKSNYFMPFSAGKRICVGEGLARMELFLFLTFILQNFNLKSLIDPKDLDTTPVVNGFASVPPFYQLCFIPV

Structure (SMILES): CC(=O)O[C@@]12CO[C@@H]1C[C@H](O)[C@@]1(C)C(=O)[C@H](O)C3=C(C)[C@@H](OC(=O)[C@H](O)[C@@H](NC(=O)OC(C)(C)C)c4ccccc4)C[C@](O)([C@@H](OC(=O)c4ccccc4)[C@H]21)C3(C)C
- EC50 [1]: < 0.1 µM (active)

Structure (SMILES): CN1Cc2sc(NC(=S)NC(=O)c3ccccc3)c(C#N)c2CC1(C)C
- EC50 [2]: 13.9 µM (active)

Structure (SMILES): CCc1ccc(C(=O)COC(=O)CNC(=O)c2cccs2)cc1
- EC50 [2]: > 195 µM (not active)

Structure (SMILES): CCOc1ccc(C2=Nn3c(nnc3-c3cccnc3)SC2)cc1
- EC50 [3]: 16 µM (active)
- EC50 [4]: > 120 µM (not active)
- EC50 [5]: 37.8 µM (active)

Structure (SMILES): NC(=O)c1c(NC(=O)Cc2ccccc2)sc2c1CCN(Cc1ccccc1)C2
- EC50 [6]: > 260 µM (inactive)

Structure (SMILES): Cc1c(Cl)cccc1N=C(S)N(Cc1cccnc1)Cc1ccccc1Cl
- EC50 [1]: 0.516 µM (active)
- EC50 [7]: > 60 µM (not active)

Structure (SMILES): COc1cc2c(c(O)c1OC)C(=O)C(OC)CCC2 (stereo unspecified)
- AC50 [8]: 6.31 µM (inconclusive)

Structure (SMILES): Cc1cccc(C)c1NC(=O)COc1ccccc1C(=O)Nc1ccc(Br)cn1
- EC50 [3]: > 120 µM (not active)
- EC50 [4]: > 120 µM (not active)
- EC50 [5]: 94.5 µM (active)

Structure (SMILES): COc1ccc(OCCN2C(=O)c3ccccc3C2=O)cc1
- EC50 [2]: > 195 µM (not active)

Structure (SMILES): COc1ccc(C(=N)NOC(=O)c2ccc3c(c2)OCO3)cc1OC
- EC50 [1]: 2.5 µM (active)
- EC50 [7]: 27 µM (active)

Structure (SMILES): COC(=O)C1=C(Nc2ccc(C)cc2)C=C(C)C(C(=O)OC)C1c1cccc(OC)c1 (stereo unspecified)
- EC50 [1]: 2.26 µM (active)
- EC50 [7]: 6.59 µM (active)

Structure (SMILES): Cc1ccc(-n2nc3c(=O)n(CCCC(=O)NCc4ccc(Cl)cc4)nc(C)c3c2C)cc1
- EC50 [3]: 0.94 µM (active)
- EC50 [4]: > 120 µM (not active)
- EC50 [5]: 19.5 µM (active)

Structure (SMILES): O=C(CN1CCN(C(c2ccccc2)c2ccccc2)CC1)N1CCOCC1
- EC50 [2]: > 195 µM (not active)

Structure (SMILES): COc1ccccc1N(CC(=O)N/N=C(\C)c1ccccc1O)S(=O)(=O)c1ccc(C)cc1
- EC50 [1]: 4.7 µM (active)
- EC50 [7]: 5.18 µM (active)

Structure (SMILES): COc1ccc(SCCc2ccncc2)cc1
- EC50 [1]: 1.1 µM (active)
- EC50 [7]: > 60 µM (not active)

Structure (SMILES): Cc1cc(N2CCN(c3ccc(F)cc3)CC2)nc2cc(O)ccc12
- EC50 [2]: > 195 µM (not active)

Structure (SMILES): CC1CC(C)(C)N=C(S)N1CCC(=O)NCc1ccc(Cl)cc1 (stereo unspecified)
- EC50 [3]: > 120 µM (not active)
- EC50 [4]: 33.7 µM (active)
- EC50 [5]: > 120 µM (not active)

Structure (SMILES): Cc1ccc2nc(-c3cccc(Br)c3)cc(C(=O)NCC3CCCO3)c2c1 (stereo unspecified)
- EC50 [2]: > 195 µM (not active)

Structure (SMILES): COC(=O)c1sccc1NC(=O)c1cc(-c2ccc(C)cc2C)nc2ccccc12
- AC50 [8]: 3.55 µM (inconclusive)

Structure (SMILES): CN(CCc1ccccc1)C(=O)c1cc(COc2cccc(C(F)(F)F)c2)on1
- EC50 [6]: > 260 µM (inactive)

Structure (SMILES): O=C(Nc1cccc(-c2nc3ncccc3o2)c1)c1ccco1
- EC50 [1]: 0.249 µM (active)
- EC50 [7]: > 60 µM (not active)

Structure (SMILES): Cc1cccc2c1NC(C)CC2C (stereo unspecified)
- EC50 [1]: 4.83 µM (active)
- EC50 [7]: > 30 µM (not active)

Structure (SMILES): Cc1ccc(C(C)C)c(OCC(=O)Nc2ccc3c(c2)nc(CCN2CCCCC2)n3C)c1
- EC50 [3]: 10 µM (active)
- EC50 [4]: 35.8 µM (active)
- EC50 [5]: 11.4 µM (active)

Structure (SMILES): CN1CCN(/N=C/c2cccc(Cl)c2Cl)CC1
- EC50 [1]: 0.321 µM (active)
- EC50 [7]: > 60 µM (not active)

Structure (SMILES): COc1ccc(-n2c(C)c(C)c3c(N)ncnc32)cc1
- EC50 [2]: 37.9 µM (active)

Structure (SMILES): Cc1cccc(CS(=O)(=O)Cc2ccc(C(=O)NCc3cccs3)o2)c1
- EC50 [2]: > 195 µM (not active)

Structure (SMILES): COc1ccc(NC(=O)CCc2nnc3ccc(NCc4ccc5c(c4)OCO5)nn23)cc1
- EC50 [6]: > 260 µM (inactive)

Structure (SMILES): COc1cc(O)cc2c1C(=O)OC(C)CCCC(=O)CCC/C=C\2 (stereo unspecified)
- EC50 [6]: > 260 µM (inactive)

Structure (SMILES): N#Cc1ccccc1Cn1cc(C(=O)c2ccccc2F)c2ccccc21
- EC50 [3]: 54.6 µM (active)
- EC50 [4]: > 120 µM (not active)
- EC50 [5]: > 120 µM (not active)

Structure (SMILES): CCCCCn1c(SCc2cccc(C)c2)nc2c1c(=O)[nH]c(=O)n2C
- EC50 [6]: > 260 µM (inactive)

Structure (SMILES): Cn1cc(C(=O)N/N=C/c2cc(Br)cs2)c2ccccc21
- EC50 [6]: 42.9 µM (active)
